Assay [1] deals with Serine/threonine-protein kinase MRCK alpha (Homo sapiens, UniProt Q5VT25). Type of assay: functional.
The target in assay [2] is Aurora kinase A (Homo sapiens, UniProt O14965). Type of assay: functional.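 Further: value from the Navigating the Kinome kinase panel profiling, panel entry STK6.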
For assay [3], the target named is Calcium/calmodulin-dependent protein kinase type II subunit beta (Homo sapiens, UniProt Q13554). The assay is classed as functional.
The target in assay [4] is Protein kinase C zeta type (Homo sapiens, UniProt Q05513). Type of assay: functional.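 Further: measured as one member of a broad kinase profiling panel.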
Assay [5] concerns the target Dual specificity protein kinase CLK4 (Homo sapiens, UniProt Q9HAZ1). The assay is classed as functional.
The target in assay [6] is Tyrosine-protein kinase receptor TYRO3 (Homo sapiens, UniProt Q06418). The assay is classed as functional.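 Further: TYRO3 value obtained as one member of a kinome-wide profiling panel.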
Assay [7] has as its target Tyrosine-protein kinase Srms (Homo sapiens, UniProt Q9H3Y6). The assay is classed as functional.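 Further: SRMS measured as one member of a kinome-wide kinase profiling panel.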
Assay [8] concerns the target Receptor tyrosine-protein kinase erbB-2 (Homo sapiens, UniProt P04626). In words: Navigating the Kinome. Panel member name: ERBB2. The assay is classed as functional.
For assay [9], the target named is T1, Hexokinase HKDC1 (Homo sapiens, UniProt Q2TB90).
T1 sequence (Q2TB90 whole entry): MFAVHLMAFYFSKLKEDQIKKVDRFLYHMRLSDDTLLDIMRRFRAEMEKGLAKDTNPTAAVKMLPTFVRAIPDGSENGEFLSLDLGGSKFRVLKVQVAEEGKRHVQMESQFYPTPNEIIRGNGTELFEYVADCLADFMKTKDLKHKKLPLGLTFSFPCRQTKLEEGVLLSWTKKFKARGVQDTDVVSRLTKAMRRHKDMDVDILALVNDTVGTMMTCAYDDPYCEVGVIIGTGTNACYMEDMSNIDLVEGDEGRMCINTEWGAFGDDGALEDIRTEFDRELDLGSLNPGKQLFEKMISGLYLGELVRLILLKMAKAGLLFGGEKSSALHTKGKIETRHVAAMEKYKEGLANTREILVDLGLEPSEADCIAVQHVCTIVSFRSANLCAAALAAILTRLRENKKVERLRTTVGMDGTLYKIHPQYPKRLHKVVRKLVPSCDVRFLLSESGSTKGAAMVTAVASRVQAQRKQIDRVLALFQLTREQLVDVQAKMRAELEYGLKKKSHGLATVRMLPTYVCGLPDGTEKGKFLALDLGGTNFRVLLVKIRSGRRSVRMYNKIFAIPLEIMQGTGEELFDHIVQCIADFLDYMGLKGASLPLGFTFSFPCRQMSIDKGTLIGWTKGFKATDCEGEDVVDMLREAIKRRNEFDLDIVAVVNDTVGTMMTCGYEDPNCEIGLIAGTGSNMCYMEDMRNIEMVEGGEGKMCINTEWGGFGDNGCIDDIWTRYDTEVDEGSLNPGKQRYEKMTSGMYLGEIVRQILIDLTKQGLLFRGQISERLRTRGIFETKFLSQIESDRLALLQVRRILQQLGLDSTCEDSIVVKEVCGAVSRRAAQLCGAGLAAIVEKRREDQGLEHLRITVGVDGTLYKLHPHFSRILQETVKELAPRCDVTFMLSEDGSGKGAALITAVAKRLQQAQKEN
Nature of the assay: HKDC1 hexokinase inhibitors, dose response, biochemical, W721R variant (AID 504729). Type of assay: functional.

In assay [10] the target is T2, Aminopeptidase N (Plasmodium falciparum FcB1/Columbia, UniProt O96935).
T2 sequence (O96935 whole entry): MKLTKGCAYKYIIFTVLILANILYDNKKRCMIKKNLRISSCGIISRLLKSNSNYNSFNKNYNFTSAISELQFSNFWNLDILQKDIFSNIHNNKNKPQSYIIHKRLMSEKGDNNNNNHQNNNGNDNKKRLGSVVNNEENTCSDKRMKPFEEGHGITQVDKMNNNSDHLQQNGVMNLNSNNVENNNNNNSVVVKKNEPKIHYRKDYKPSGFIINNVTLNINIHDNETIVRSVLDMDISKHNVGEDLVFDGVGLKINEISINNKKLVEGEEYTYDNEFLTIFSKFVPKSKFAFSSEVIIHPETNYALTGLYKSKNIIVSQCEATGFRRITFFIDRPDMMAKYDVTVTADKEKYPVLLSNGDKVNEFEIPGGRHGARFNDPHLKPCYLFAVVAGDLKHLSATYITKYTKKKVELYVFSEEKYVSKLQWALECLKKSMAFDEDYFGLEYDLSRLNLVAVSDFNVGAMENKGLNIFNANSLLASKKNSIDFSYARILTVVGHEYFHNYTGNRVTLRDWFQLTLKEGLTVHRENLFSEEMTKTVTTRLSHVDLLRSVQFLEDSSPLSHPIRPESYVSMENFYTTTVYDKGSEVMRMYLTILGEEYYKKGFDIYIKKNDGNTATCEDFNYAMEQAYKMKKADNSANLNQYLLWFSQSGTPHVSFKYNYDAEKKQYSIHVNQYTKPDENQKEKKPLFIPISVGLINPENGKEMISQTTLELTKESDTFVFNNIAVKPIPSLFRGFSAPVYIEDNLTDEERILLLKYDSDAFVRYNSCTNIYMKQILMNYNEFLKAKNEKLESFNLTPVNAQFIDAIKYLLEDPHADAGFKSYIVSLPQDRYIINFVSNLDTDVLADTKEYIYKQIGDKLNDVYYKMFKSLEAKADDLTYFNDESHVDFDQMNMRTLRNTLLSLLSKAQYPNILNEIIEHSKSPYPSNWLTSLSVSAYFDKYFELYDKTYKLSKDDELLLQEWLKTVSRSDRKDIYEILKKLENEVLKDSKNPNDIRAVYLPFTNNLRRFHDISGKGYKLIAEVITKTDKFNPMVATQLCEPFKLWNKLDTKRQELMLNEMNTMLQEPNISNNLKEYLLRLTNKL
Nature of the assay: P. falciparum M1AAP inhibitors, biochemical, fluorogenic H-Leu-NHMec substrate, 1536-well (AID 1445). Also on record: species or system Plasmodium falciparum 3D7, 3D7.

Data on three compounds can be found in ChEMBL document CHEMBL1201862, “PubChem BioAssay data set” (2004).

The source made the active and inactive calls. Bounds are passed on as bounds.

Broadly, the Ki is the equilibrium dissociation constant of an inhibitor or competing ligand from its target. One may read the IC50 as the midpoint of a concentration-inhibition curve.

Dual specificity protein kinase CLK4, sequence (Q9HAZ1 whole entry): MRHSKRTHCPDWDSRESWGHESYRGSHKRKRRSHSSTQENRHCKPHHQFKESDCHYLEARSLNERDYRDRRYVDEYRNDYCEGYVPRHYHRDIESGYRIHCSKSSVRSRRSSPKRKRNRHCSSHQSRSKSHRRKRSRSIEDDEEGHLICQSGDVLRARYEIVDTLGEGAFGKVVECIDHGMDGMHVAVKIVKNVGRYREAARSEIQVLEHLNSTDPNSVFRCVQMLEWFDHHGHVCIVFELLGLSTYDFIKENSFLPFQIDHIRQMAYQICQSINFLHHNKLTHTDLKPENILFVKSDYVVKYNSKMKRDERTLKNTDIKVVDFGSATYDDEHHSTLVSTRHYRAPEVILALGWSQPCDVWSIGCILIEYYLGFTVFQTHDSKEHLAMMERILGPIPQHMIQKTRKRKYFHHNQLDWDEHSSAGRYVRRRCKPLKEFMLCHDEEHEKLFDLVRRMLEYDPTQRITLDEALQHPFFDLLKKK
Tyrosine-protein kinase Srms, sequence (Q9H3Y6 whole entry): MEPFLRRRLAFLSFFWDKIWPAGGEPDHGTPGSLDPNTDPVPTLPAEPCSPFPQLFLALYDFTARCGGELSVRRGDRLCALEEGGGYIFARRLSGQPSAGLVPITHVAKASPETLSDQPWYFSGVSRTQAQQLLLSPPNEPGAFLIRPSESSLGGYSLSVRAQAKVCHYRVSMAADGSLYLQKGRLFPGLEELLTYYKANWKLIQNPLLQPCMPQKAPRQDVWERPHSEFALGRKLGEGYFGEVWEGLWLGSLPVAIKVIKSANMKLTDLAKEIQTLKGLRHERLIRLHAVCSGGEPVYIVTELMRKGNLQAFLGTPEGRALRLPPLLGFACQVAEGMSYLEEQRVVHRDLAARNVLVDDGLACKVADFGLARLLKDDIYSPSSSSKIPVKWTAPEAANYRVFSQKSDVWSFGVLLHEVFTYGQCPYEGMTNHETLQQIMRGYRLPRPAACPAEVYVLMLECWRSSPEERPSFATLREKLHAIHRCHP
Tyrosine-protein kinase receptor TYRO3, sequence (Q06418 whole entry): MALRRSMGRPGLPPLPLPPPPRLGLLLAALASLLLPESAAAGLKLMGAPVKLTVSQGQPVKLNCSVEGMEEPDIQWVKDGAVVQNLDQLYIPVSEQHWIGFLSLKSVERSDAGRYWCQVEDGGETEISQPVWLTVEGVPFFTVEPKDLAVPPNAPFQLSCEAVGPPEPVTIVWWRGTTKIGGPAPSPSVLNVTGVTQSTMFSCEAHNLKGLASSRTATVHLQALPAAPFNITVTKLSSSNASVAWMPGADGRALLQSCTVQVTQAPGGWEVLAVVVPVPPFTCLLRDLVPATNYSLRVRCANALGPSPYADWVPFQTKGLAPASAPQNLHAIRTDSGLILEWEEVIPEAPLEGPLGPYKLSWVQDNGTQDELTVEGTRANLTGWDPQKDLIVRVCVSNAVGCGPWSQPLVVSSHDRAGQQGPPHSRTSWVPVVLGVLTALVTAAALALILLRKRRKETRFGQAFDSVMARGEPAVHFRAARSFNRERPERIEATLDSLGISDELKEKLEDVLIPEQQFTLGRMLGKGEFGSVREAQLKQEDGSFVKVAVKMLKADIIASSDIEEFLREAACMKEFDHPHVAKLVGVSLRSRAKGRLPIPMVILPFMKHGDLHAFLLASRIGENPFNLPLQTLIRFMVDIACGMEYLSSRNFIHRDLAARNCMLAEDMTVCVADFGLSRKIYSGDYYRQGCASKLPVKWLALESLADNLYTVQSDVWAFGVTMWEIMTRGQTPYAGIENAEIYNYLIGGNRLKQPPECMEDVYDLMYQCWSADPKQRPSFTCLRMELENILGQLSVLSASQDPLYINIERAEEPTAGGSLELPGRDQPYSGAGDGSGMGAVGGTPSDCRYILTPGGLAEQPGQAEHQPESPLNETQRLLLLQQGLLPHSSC
Calcium/calmodulin-dependent protein kinase type II subunit beta, sequence (Q13554 whole entry): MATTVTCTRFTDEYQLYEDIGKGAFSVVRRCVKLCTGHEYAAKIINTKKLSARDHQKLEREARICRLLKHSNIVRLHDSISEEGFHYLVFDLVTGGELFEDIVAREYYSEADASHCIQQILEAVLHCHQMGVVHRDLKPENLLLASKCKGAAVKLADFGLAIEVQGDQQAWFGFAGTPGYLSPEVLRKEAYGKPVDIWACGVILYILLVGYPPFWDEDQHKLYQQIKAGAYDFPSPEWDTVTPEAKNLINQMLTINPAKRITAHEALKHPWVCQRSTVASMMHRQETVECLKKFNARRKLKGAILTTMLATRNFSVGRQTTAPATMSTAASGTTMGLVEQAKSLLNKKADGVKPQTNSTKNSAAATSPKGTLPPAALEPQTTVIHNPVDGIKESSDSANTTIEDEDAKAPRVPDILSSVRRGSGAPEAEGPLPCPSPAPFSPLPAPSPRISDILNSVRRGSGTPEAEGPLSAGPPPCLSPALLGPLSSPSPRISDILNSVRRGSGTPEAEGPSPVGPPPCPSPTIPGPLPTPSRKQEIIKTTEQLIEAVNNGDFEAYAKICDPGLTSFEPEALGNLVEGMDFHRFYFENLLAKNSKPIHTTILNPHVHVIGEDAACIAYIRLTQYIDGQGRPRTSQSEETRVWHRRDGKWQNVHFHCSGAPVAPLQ
Serine/threonine-protein kinase MRCK alpha, sequence (Q5VT25 whole entry): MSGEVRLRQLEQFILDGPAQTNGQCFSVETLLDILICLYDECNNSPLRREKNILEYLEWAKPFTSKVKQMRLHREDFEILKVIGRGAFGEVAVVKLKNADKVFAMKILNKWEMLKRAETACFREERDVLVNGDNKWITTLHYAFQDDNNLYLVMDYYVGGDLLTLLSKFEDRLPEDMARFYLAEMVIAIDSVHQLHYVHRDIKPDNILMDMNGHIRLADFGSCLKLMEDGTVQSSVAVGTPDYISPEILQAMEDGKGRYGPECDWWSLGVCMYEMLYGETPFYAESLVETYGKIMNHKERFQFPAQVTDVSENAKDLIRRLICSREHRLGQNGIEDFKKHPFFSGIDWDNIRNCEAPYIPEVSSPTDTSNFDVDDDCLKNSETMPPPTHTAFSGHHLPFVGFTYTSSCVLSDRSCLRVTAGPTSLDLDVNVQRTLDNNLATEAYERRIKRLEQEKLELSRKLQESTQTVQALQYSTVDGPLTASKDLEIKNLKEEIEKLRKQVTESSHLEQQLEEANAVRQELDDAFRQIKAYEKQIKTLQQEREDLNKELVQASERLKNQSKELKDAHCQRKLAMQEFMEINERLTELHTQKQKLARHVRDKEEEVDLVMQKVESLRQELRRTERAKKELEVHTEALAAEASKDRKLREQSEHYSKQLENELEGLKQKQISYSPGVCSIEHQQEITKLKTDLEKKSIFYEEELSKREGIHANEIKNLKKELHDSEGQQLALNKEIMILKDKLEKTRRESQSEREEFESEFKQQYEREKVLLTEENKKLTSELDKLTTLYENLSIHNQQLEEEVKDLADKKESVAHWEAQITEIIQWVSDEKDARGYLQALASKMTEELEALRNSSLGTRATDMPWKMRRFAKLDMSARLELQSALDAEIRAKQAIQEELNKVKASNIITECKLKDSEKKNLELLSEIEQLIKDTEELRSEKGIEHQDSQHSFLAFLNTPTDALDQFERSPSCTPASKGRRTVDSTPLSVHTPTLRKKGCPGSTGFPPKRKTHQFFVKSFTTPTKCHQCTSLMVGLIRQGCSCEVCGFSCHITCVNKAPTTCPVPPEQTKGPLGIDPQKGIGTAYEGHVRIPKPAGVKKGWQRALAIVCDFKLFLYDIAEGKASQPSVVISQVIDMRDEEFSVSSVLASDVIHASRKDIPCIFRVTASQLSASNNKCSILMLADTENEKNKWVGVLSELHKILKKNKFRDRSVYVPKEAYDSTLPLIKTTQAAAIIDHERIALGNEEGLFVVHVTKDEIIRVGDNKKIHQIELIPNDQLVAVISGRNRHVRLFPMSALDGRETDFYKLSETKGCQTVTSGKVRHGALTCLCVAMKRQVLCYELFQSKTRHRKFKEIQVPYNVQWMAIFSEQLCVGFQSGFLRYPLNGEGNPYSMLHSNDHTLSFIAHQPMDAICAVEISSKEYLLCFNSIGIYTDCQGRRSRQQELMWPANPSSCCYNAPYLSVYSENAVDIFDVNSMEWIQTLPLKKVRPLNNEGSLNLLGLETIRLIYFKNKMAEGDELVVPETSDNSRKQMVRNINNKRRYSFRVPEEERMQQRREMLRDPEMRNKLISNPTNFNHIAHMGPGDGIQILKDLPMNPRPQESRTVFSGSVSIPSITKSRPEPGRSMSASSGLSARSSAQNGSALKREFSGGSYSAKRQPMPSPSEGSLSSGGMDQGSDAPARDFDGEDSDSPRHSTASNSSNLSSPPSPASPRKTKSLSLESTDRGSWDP
Protein kinase C zeta type, sequence (Q05513 whole entry): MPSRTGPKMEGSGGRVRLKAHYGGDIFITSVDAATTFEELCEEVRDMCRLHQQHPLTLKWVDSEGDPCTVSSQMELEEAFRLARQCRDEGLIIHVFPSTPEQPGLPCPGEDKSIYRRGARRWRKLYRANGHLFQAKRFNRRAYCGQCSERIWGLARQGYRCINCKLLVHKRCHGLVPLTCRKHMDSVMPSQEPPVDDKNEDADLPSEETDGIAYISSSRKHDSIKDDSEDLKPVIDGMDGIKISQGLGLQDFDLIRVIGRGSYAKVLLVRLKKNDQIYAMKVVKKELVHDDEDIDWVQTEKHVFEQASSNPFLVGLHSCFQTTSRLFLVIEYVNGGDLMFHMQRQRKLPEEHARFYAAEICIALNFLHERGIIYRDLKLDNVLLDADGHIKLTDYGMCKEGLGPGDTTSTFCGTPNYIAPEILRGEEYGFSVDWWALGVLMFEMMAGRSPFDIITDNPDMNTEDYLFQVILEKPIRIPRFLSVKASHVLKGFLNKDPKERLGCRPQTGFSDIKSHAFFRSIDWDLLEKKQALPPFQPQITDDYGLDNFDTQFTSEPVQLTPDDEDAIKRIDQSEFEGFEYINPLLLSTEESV

`N#Cc1ccc2[nH]c(O)c(-c3ccc(CN4CCOCC4)cn3)c2c1` [AZD-1080]: the Ki in assay [1] was > 10 µM (inactive); in [2], > 1.58 µM (inactive); in assay [3] it was > 7.94 µM (inactive); in assay [4], > 7.94 µM (inactive); in assay [5], 2.51 µM (active); in [6], > 2.51 µM (inactive). Moreover, the Ki in assay [7] and in assay [8] was > 1.58 µM (inactive) in each case.
Turning to `O=C1C=C(N2CCOCC2)c2ccccc2C1=O`, the IC50 in assay [9] was 1.02 µM (active).
As for `CCc1oc2ccccc2c1C(=O)c1cc(Br)c(O)c(Br)c1` [BENZBROMARONE], the IC50 in assay [10] was 62.8 µM (active).
